The values that follow come from patent US20080227823A1, “AMIDE DERIVATIVES AS CALCIUM CHANNEL BLOCKERS” (priority 2007, published 2008).

The Kd is the constant that tells how readily two partners part at equilibrium.

For assay [1], the target named is T1, human α1G T-type channels (Homo sapiens, UniProt O43497).
T1 construct: expressed in transfected cells; host or cells: HEK 293
In words: T-type calcium channel block, whole cell patch clamp in HEK cells. The format is cell-based. The settings on record: mainly non-inactivated protocol. The method, then:
(§1) T-type calcium channel blocking activity was assayed in human embryonic kidney cells, HEK 293, stably transfected with the T-type calcium channel subunits. Briefly, cells were cultured in Dulbecco's modified eagle medium (DMEM) supplemented with 10% fetal bovine serum, 200 U/ml penicillin and 0.2 mg/ml streptomycin at 37° C. with 5% CO2. At 85% confluency cells were split with 0.25% trypsin/1 mM EDTA and plated at 10% confluency on glass coverslips. At 12 hours the medium was replaced and the cells stably transfected using a standard calcium phosphate protocol and the appropriate calcium channel cDNA's. Fresh DMEM was supplied and the cells transferred to 28° C./5% CO2. Cells were incubated for 1 to 2 days prior to whole cell recording.
(§2) Standard patch-clamp techniques were employed to identify blockers of T-type currents. Briefly, previously described HEK cell lines stably expressing human α1G, α1H and α1I T-type channels were used for all the recordings (passage #: 4-20, 37° C., 5% CO2). Whole cell patch clamp experiments were performed using an Axopatch 200B amplifier (Axon Instruments, Burlingame, Calif.) linked to a personal computer equipped with pCLAMP software. Data were analyzed using Clampfit (Axon Instruments) and SigmaPlot 4.0 (Jandel Scientific). To obtain T-type currents, plastic dishes containing semi-confluent cells were positioned on the stage of a ZEISS AXIOVERT S100 microscope after replacing the culture medium with external solution (see below). Whole-cell patches were obtained using pipettes (borosilicate glass with filament, O.D.: 1.5 mm, I.D.: 0.86 mm, 10 cm length), fabricated on a SUTTER P-97 puller with resistance values of ˜5 MΩ (see below for internal solution).
(§3) T-type currents were reliably obtained by using two voltage protocols: • (1) “non-inactivating”, and • (2) “inactivation”
(§4) In the non-inactivating protocol, the holding potential is set at −110 mV and with a pre-pulse at −100 mV for 1 second prior to the test pulse at −40 mV for 50 ms. In the inactivation protocol, the pre-pulse is at approximately −85 mV for 1 second, which inactivates about 15% of the T-type channels.
(§5) Test compounds were dissolved in external solution, 0.1-0.01% DMSO. After 10 min rest, they were applied by gravity close to the cell using a WPI microfil tubing. The “non-inactivated” pre-pulse was used to examine the resting block of a compound. The “inactivated” protocol was employed to study voltage-dependent block. However, the initial data shown below were mainly obtained using the non-inactivated protocol only. Kd values are shown for various compounds of the invention in Table 4 measured at 1 μM for the drug of interest except for compound 18 which was measured at 200 nM.
(Patch clamp records ionic current or voltage across a cell membrane.)

For assay [2], the target named is T2, human α1I T-type channels (Homo sapiens, UniProt Q9P0X4).
T2 construct: expressed in transfected cells; host or cells: HEK 293
The description is as above. To be noted: mainly non-inactivated protocol. The format is cell-based. The method, then: as §1, §2, §3, §4, §5

Assay [3] relates to T-type over L-type channels. The settings on record: cited from earlier work.
For assay [4] the following is noted: spinal nerve ligation model of neuropathic pain in rats; cited from earlier work.
The target in assay [5] is T3, human α1H T-type channels (Homo sapiens, UniProt O95180).
T3 construct: expressed in transfected cells; host or cells: HEK 293
T3 sequence (O95180 whole entry): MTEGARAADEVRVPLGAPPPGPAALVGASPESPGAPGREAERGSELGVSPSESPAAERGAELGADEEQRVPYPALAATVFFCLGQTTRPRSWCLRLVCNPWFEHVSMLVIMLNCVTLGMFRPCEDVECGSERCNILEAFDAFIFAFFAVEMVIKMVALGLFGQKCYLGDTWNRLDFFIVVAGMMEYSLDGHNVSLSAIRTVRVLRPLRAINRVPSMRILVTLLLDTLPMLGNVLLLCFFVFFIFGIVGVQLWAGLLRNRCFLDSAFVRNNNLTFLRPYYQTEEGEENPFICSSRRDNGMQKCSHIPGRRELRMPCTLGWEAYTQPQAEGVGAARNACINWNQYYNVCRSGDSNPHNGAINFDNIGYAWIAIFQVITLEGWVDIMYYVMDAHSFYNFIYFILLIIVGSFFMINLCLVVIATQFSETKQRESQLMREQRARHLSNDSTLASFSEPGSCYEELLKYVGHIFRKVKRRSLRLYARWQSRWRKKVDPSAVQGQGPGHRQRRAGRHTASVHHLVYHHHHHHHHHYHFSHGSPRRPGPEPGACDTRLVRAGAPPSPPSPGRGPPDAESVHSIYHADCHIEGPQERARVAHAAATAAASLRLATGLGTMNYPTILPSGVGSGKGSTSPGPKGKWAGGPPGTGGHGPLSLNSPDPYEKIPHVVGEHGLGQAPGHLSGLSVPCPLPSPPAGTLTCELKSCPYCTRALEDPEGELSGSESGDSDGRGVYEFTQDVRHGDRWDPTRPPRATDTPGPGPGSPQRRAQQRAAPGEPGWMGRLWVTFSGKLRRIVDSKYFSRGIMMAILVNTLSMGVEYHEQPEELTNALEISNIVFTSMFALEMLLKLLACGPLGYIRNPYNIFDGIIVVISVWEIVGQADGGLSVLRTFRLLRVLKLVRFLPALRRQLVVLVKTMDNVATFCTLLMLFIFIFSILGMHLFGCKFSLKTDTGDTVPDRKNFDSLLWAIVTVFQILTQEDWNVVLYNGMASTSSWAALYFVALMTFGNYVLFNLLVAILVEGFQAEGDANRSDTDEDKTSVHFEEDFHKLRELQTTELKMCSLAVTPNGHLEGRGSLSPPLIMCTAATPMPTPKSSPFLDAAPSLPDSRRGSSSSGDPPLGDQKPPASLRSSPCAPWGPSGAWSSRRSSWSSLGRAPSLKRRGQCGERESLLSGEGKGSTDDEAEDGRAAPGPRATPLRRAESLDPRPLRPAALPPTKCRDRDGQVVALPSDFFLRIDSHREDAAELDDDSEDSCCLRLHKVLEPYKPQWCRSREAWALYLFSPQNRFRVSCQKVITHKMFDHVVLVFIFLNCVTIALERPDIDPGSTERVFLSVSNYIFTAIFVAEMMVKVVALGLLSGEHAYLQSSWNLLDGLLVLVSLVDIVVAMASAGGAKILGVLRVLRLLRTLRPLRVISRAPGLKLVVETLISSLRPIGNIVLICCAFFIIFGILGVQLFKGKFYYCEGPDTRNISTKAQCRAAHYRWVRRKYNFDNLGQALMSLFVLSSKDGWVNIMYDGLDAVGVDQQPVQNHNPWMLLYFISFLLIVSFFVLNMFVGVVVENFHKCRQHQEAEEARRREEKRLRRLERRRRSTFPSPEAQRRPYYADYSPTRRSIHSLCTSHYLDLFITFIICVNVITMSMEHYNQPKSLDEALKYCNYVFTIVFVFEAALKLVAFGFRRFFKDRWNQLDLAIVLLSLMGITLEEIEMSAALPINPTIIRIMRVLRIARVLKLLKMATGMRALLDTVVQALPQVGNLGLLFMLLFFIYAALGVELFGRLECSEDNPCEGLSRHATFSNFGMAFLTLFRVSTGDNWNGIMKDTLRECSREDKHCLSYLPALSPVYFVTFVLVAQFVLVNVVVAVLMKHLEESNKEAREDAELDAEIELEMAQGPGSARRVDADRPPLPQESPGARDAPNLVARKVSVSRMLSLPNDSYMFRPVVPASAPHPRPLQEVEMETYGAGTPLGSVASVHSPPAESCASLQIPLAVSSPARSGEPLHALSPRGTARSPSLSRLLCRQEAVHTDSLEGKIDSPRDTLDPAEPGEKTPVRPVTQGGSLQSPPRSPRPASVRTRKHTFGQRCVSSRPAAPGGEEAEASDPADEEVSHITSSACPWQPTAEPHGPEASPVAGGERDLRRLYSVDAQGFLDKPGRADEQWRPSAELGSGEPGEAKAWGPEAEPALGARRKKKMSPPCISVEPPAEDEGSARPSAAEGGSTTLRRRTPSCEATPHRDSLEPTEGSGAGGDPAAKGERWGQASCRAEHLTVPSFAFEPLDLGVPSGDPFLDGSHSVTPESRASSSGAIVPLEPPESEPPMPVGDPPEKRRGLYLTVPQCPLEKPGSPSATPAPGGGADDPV
In words: T-type calcium channel block, whole cell patch clamp in HEK cells. Type of assay: cell-based. To be noted: mainly non-inactivated protocol. The method, then:
as §1, §2, §3, §4, §5

T1 sequence (O43497 whole entry): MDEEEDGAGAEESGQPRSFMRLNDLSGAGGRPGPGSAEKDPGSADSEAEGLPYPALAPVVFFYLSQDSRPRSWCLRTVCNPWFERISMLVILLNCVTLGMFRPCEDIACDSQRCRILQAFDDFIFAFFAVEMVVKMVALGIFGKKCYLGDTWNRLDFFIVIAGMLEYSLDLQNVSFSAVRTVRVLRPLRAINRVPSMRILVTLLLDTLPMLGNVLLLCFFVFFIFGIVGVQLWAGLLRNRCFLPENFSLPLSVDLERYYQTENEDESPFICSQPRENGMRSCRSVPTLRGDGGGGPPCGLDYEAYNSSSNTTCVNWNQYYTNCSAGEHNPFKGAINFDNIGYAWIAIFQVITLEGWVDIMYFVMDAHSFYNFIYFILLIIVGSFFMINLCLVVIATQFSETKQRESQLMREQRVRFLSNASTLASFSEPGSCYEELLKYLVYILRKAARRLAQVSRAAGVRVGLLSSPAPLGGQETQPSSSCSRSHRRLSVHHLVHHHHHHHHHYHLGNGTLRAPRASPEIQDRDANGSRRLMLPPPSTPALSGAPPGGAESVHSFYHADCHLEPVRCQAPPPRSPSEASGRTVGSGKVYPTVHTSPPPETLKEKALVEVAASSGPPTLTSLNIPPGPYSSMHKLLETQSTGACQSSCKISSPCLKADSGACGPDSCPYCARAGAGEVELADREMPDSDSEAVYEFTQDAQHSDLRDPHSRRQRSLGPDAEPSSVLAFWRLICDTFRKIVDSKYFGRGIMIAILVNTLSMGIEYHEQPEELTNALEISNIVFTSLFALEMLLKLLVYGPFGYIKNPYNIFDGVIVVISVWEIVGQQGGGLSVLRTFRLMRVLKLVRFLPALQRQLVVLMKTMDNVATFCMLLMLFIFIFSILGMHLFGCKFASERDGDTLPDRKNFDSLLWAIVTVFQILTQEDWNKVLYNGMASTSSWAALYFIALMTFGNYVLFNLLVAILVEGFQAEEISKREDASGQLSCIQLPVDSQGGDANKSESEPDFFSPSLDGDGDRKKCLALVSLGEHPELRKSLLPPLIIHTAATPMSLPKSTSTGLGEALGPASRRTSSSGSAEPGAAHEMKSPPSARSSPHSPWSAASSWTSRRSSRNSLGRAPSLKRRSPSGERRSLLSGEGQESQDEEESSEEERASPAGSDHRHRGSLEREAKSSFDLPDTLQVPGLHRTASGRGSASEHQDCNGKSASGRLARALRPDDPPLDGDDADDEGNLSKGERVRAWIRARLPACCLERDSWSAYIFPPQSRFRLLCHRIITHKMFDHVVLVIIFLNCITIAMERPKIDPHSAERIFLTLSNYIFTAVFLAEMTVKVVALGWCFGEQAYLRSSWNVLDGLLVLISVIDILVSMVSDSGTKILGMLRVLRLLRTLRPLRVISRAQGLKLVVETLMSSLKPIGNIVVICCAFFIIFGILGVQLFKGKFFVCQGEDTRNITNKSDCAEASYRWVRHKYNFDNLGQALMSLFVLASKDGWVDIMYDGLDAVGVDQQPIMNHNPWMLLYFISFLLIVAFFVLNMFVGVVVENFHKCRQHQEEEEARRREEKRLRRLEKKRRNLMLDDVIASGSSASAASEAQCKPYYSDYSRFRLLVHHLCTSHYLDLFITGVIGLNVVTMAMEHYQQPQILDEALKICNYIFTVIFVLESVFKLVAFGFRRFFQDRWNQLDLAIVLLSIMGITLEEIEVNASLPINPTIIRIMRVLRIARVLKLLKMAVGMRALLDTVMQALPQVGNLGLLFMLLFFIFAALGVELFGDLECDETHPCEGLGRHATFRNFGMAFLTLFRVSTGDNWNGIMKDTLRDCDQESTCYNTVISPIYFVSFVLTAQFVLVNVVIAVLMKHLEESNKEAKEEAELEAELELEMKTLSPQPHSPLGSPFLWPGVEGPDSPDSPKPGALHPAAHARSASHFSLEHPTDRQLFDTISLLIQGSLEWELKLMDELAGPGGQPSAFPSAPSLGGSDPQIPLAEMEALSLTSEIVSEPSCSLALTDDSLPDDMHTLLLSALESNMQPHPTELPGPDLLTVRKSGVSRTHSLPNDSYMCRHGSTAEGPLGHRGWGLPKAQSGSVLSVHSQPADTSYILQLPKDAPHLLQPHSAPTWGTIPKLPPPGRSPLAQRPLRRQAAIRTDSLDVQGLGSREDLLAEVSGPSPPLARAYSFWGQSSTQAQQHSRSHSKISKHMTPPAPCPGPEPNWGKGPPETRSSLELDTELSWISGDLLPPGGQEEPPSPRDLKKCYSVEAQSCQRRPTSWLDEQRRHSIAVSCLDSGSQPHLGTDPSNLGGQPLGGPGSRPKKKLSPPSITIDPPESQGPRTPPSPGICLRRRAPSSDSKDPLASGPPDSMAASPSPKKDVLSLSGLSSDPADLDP

Regarding `COC(=O)N1CCC(NC(=O)/C=C/c2ccc(F)c(Br)c2)(C(=O)NCCc2c[nH]c3ccc(F)cc23)CC1` [Compound 23, (E)-methyl 4-(3-(3-bromo-4-fluorophenyl)acrylamido)-4-(2-(5-fluoro-1H-indol-3-yl)ethylcarbamoyl)piperidine-1-carboxylate], the Kd in assay [1] (measured at 1 μM drug) was determined as 790 nM; in assay [2] (measured at 1 μM drug), 870 nM.
As for `COCC(=O)O[C@]1(CCN(C)CCCc2nc3ccccc3[nH]2)CCc2cc(F)ccc2[C@@H]1C(C)C` [Mibefradil], the “selective for T-type over L-type channels” value in assay [3] is given as 10-30 fold. Besides, the anti-hyperalgesic activity entry in assay [4] is recorded as “anti-hyperalgesic activity”.
`O=C(/C=C/c1ccc(F)c(Br)c1)NC1(C(=O)NCCc2c[nH]c3ccccc23)CCNCC1` [Compound 2, (E)-N-(2-(1H-indol-3-yl)ethyl)-4-(3-(3-bromo-4-fluorophenyl)acrylamido)piperidine-4-carboxamide]: the values for the Kd in assay [1] (measured at 1 μM drug), in assay [5] (measured at 1 μM drug) and in assay [2] (measured at 1 μM drug) were 30 nM, 410 nM and 30 nM, respectively.
For the compound `O=C(/C=C/c1ccc(F)c(Br)c1)NC1(C(=O)NCCc2c[nH]c3ccc(F)cc23)CCNCC1` [Compound 1], the Kd worked out at 220 nM in assay [1] (measured at 1 μM drug), 470 nM in assay [5] (measured at 1 μM drug) and 180 nM in assay [2] (measured at 1 μM drug).
In the case of `O=C(/C=C/c1ccc(F)c(Br)c1)N[C@@H](C(=O)NCCc1c[nH]c2ccc(F)cc12)c1ccccc1` [Compound 18, (R,E)-3-(3-bromo-4-fluorophenyl)-N-(2-(2-(5-fluoro-1H-indol-3-yl)ethylamino)-2-oxo-1-phenylethyl)acrylamide], the values for the Kd in assay [1] (measured at 200 nM drug), in assay [5] (measured at 200 nM drug) and in assay [2] (measured at 200 nM drug) were 70 nM, 690 nM and 380 nM, respectively.
On to `CCC1(C)CC(=O)NC1=O` (stereo not shown) [ethosuximide], for which, in assay [4], the anti-hyperalgesic activity entry was “anti-hyperalgesic activity”.
As to `O=C(/C=C/c1ccc(F)c(Br)c1)NC1(C(=O)NCCc2c[nH]c3ccc(F)cc23)CCN(C(=O)C(F)(F)F)CC1` [Compound 27, (E)-4-(3-(3-bromo-4-fluorophenyl)acrylamido)-N-(2-(5-fluoro-1H-indol-3-yl)ethyl)-1-(2,2,2-trifluoroacetyl) piperidine-4-carboxamide], the Kd was found to be 150 nM in assay [1] (measured at 1 μM drug), 840 nM in assay [5] (measured at 1 μM drug) and 210 nM in assay [2] (measured at 1 μM drug).
In the same order, the values of `O=C(/C=C/c1ccc(F)c(Br)c1)NC1(C(=O)NCCc2c[nH]c3ccc(F)cc23)CCCCC1` [Compound 12, (E)-1-(3-(3-bromo-4-fluorophenyl)acrylamido)-N-(2-(5-fluoro-1H-indol-3-yl)ethyl)cyclohexanecarboxamide] are 120 nM, 1800 nM and 280 nM.
The corresponding values for `O=C(/C=C/c1ccc(F)c(Br)c1)N[C@H](C(=O)NCCc1c[nH]c2ccc(F)cc12)c1ccccc1` [Compound 17, (S,E)-3-(3-bromo-4-fluorophenyl)-N-(2-(2-(5-fluoro-1H-indol-3-yl)ethylamino)-2-oxo-1-phenylethyl)acrylamide] are 100 nM, 940 nM and 170 nM.
The corresponding values for `O=C(/C=C/c1ccc(F)c(F)c1)NC1(C(=O)NCCc2c[nH]c3ccc(F)cc23)CCNCC1` [Compound 7, (E)-4-(3-(3,4-difluorophenyl)acrylamido)-N-(2-(5-fluoro-1H-indol-3-yl)ethyl)piperidine-4-carboxamide] are 130 nM, 137000 nM and 110 nM.
Turning to `O=C(/C=C/c1ccc(F)c(Br)c1)NC1(C(=O)NCCc2c[nH]c3ccc(F)cc23)CC1` [Compound 14, (E)-1-(3-(3-bromo-4-fluorophenyl)acrylamido)-N-(2-(5-fluoro-1H-indol-3-yl)ethyl)cyclopropanecarboxamide], the equilibrium dissociation constant (Kd) in assay [1] (measured at 1 μM drug) worked out at 290 nM; in assay [5] (measured at 1 μM drug), 12000 nM; in assay [2] (measured at 1 μM drug) it was 460 nM.
Regarding `CC(C)(NC(=O)/C=C/c1ccc(F)c(Br)c1)C(=O)NCCc1c[nH]c2ccc(F)cc12` [Compound 15, (E)-3-(3-bromo-4-fluorophenyl)-N-(1-(2-(5-fluoro-1H-indol-3-yl)ethylamino)-2-methyl-1-oxopropan-2-yl)acrylamide], the results for the Kd in assay [1] (measured at 1 μM drug) and in assay [2] (measured at 1 μM drug) were 360 nM and 480 nM, respectively.
Take `NCC(=O)N1CCC(NC(=O)/C=C/c2ccc(F)c(Br)c2)(C(=O)NCCc2c[nH]c3ccc(F)cc23)CC1` [Compound 24, (E)-1-(2-aminoacetyl)-4-(3-(3-bromo-4-fluorophenyl)acrylamido)-N-(2-(5-fluoro-1H-indol-3-yl)ethyl)piperidine-4-carboxamide]: the results for the Kd in assay [1] (measured at 1 μM drug), in assay [5] (measured at 1 μM drug) and in assay [2] (measured at 1 μM drug) were 180 nM, 1450 nM and 440 nM, respectively.
As for `O=C(/C=C/c1ccc(F)c(Br)c1)NC1(C(=O)NCCc2c[nH]c3ccc(F)cc23)CCCC1` [Compound 13, (E)-1-(3-(3-bromo-4-fluorophenyl)acrylamido)-N-(2-(5-fluoro-1H-indol-3-yl)ethyl)cyclopentanecarboxamide], the Kd in assay [1] (measured at 1 μM drug) amounted to 140 nM; in assay [5] (measured at 1 μM drug), 1790 nM; in assay [2] (measured at 1 μM drug), 390 nM.
In the same order, the values of `O=C(/C=C/c1ccc(F)cc1)NC1(C(=O)Nc2cc(C(F)(F)F)cc(C(F)(F)F)c2)CCNCC1` [Compound 32, (E)-N-(3,5-bis(trifluoromethyl)phenyl)-4-(3-(4-fluorophenyl)acrylamido)piperidine-4-carboxamide] are 50 nM, 420 nM and 50 nM.
In the case of `CN1CCC(NC(=O)/C=C/c2ccc(F)c(Br)c2)(C(=O)NCCc2c[nH]c3ccc(F)cc23)CC1` [Compound 22], the figures for the Kd in assay [1] (measured at 1 μM drug), in assay [5] (measured at 1 μM drug) and in assay [2] (measured at 1 μM drug) were 100 nM, 490 nM and 330 nM, respectively.
